How the values were obtained:
E. coli GroEL = E. coli GroEL (Escherichia coli, UniProt P0A6F5); experiment: Isothermal titration calorimetry binding to GroEL; conditions: for T∆S: 20°C (293.15 K); for Stoichiometry n, GroELmonomer : Molecule: single-site binding model; for ∆G: calculated with Gibbs equation at 20°C
MRSA (ATCC BAA-44) = experiment: MRSA proliferation assay; assay type: cell-based, Staphylococcus aureus
S. aureus (ATCC 25923) = experiment: S. aureus proliferation assay; assay type: cell-based, Staphylococcus aureus
native rhodanese = biological target: T1, native rhodanese (Bos taurus, UniProt P00586); experiment: Native Rho enzymatic reporter counter-screen; assay type: biochemical
T1 sequence (P00586 2-297 limits assumed): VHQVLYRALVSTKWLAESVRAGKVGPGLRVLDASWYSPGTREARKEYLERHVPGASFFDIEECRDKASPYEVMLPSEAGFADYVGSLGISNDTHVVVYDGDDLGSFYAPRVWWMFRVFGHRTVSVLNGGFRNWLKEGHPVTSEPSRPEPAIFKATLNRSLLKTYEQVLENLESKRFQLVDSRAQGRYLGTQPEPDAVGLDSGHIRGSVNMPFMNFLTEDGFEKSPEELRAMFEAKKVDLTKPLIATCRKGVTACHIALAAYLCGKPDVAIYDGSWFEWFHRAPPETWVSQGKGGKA

[1] = biological target: T2, native malate dehydrogenase (Sus scrofa, UniProt P00346); experiment: Native MDH enzymatic reporter counter-screen; assay type: biochemical
T2 sequence (P00346 25-338): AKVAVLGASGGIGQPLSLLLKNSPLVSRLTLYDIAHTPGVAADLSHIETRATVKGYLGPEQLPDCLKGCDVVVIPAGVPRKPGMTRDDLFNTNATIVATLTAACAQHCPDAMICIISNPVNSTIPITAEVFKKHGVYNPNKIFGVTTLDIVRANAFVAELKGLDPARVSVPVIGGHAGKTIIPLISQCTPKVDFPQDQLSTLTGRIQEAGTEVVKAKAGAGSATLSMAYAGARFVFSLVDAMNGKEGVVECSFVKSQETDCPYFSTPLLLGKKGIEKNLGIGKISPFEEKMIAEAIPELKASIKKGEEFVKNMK

[2] = system: MRSA strain (ATCC BAA-44); experiment: 12-day serial passage MRSA resistance assay; assay type: cell-based, Staphylococcus aureus; conditions: for MRSA resistance generation: 12 passages over 12 days
ESKAPE pathogens = conditions: cited from earlier work

Sequence of E. coli GroEL (P0A6F5 2-548): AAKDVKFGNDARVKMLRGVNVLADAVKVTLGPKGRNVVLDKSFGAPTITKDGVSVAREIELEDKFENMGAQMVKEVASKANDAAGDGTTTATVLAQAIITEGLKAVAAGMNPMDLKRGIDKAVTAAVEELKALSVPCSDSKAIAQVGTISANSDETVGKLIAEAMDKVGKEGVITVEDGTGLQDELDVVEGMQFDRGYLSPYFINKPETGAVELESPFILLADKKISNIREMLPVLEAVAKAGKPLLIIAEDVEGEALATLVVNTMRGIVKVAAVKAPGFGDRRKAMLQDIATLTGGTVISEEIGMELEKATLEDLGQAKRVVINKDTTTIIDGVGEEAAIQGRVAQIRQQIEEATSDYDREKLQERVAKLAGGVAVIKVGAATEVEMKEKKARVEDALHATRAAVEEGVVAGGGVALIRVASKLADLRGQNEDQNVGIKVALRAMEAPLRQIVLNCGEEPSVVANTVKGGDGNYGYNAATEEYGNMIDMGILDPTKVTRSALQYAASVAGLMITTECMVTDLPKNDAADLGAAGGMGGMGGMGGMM

With NCc1ccc(S(=O)(=O)Nc2ccc3oc(-c4ccc(NS(=O)(=O)c5ccc(Cl)s5)cc4)nc3c2)cc1 [20L] the “Stoichiometry n, Molecule : GroELmonomer” value (E. coli GroEL; ITC, 20°C) was 1.67 ± 0.39, the “∆H” value (E. coli GroEL; ITC, 20°C) was -8.30 ± 0.52 kcal/mol and the “∆S” value (E. coli GroEL; ITC, 20°C) was 0.003 ± 0.002 kcal/molK. The “T∆S” value (E. coli GroEL; ITC) was 0.84 ± 0.55 kcal/mol, the “Stoichiometry n, GroELmonomer : Molecule” value (E. coli GroEL; ITC, 20°C) was 0.6 ± 0.14 and the “Stoichiometry n, Molecule : GroELoligomer” value (E. coli GroEL; ITC, 20°C, molecules per GroEL tetradecamer) was 23.3 ± 5.4. The “∆G” value (E. coli GroEL) was -9.14 ± 0.06 kcal/mol, the “inhibition of MRSA proliferation” value (MRSA (ATCC BAA-44)) was “only moderately active” and the “inhibition of S. aureus proliferation” value (S. aureus (ATCC 25923)) was “only moderately active”.
For O=[N+]([O-])c1cc(S(=O)(=O)Nc2ccc(-c3nc4cc(NS(=O)(=O)c5ccc(Cl)s5)ccc4o3)cc2)ccc1Cl [28R], the “inhibition of native rhodanese” value (native rhodanese) was “only to a minor extent”, the “inhibition of native malate dehydrogenase” value [1] was “only to a minor extent” and the “MRSA resistance generation” value [2] was “rapidly developed resistance”. The “sensitivity of resistant MRSA after culture without inhibitor” value ([2]; two days without inhibitors (24 h agar, 24 h liquid)) was “regained sensitivity”.
For O=S(=O)(Nc1ccc(-c2nc3cc(NS(=O)(=O)c4cccs4)ccc3o2)cc1)c1cccs1 [compound 6], the “inhibition of MRSA proliferation” value (MRSA (ATCC BAA-44)) was “most potent and selective inhibitors of MRSA proliferation”.
For O=S(=O)(Nc1ccc(-c2nc3cc(NS(=O)(=O)c4ccc(Cl)cc4)ccc3o2)cc1)c1ccc(Cl)cc1 [2c-p], the “inhibition of MRSA proliferation” value (MRSA (ATCC BAA-44)) was “most potent and selective inhibitors of MRSA proliferation”.
With NCc1ccc(S(=O)(=O)Nc2ccc(-c3nc4cc(NS(=O)(=O)c5ccc(Cl)s5)ccc4o3)cc2)cc1 [20R] the “Stoichiometry n, Molecule : GroELmonomer” value (E. coli GroEL; ITC, 20°C) was 1.30 ± 0.27, the “∆H” value (E. coli GroEL; ITC, 20°C) was -9.78 ± 0.80 kcal/mol and the “∆S” value (E. coli GroEL; ITC, 20°C) was 0.001 ± 0.003 kcal/molK. The “T∆S” value (E. coli GroEL; ITC) was 0.20 ± 0.82 kcal/mol, the “Stoichiometry n, GroELmonomer : Molecule” value (E. coli GroEL; ITC, 20°C) was 0.77 ± 0.16 and the “∆G” value (E. coli GroEL) was -9.98 ± 0.26 kcal/mol. For the same compound, the “inhibition of MRSA proliferation” value (MRSA (ATCC BAA-44)) was “only moderately active”, the “MRSA resistance generation” value [2] was “unable to generate resistance” and the “inhibition of S. aureus proliferation” value (S. aureus (ATCC 25923)) was “only moderately active”.
For CN[C@H](CC(C)C)C(=O)N[C@H]1C(=O)N[C@@H](CC(N)=O)C(=O)N[C@H]2C(=O)N[C@H]3C(=O)N[C@H](C(=O)N[C@H](C(=O)O)c4cc(O)cc(O)c4-c4cc3ccc4O)[C@H](O)c3ccc(c(Cl)c3)Oc3cc2cc(c3O[C@@H]2O[C@H](CO)[C@@H](O)[C@H](O)[C@H]2O[C@H]2C[C@](C)(N)[C@H](O)[C@H](C)O2)Oc2ccc(cc2Cl)[C@H]1O [vancomycin, reference compound], the “MRSA resistance generation” value [2] was “retained sensitivity”.
For Cc1ccc(S(=O)(=O)Nc2ccc(-c3nc4ccc(NS(=O)(=O)c5ccc(C)cc5)cc4[nH]3)cc2)cc1 [compound 1], the “antibacterial effects against ESKAPE pathogens” value (ESKAPE pathogens) is given as “no antibacterial effects”.

From article PMC6345161 (Journal of medicinal chemistry, 2018)
